Where “and” joins values, the source holds several entries; their conditions need not be identical. Equal entries are not always repeated. Ends that are not written are not given here.
Key:
C. sakazakii DPC 6440 [1] = assay: Agarose gel diffusion assay, purified peptide; format: cell-based, Cronobacter sakazakii; conditions: purified peptide 60 µM; for Zone of inhibition, agarose gel diffusion: C. sakazakii DPC 6440, mean of triplicate assays; for Zone as % wt: C. sakazakii DPC 6440, relative to nisin A
Method: (§1) Agarose-based deferred antagonism assays were carried out as follows: GM17/LB (0.03%) underlay was prepared with 10 mM sodium phosphate buffer (SPB) at pH 7.4 to which was added agarose (1% w/v agarose), autoclaved and cooled to 50°C. Bacteria grown to mid-logarithmic phase were harvested by centrifugation and washed with 10 mM SPB at pH 7.4. Bacteria were then added to 15 mls cooled underlay medium to reach a concentration of 2×10^7 colony-forming units (CFU)/mL. The inoculated medium was rapidly transferred into sterile Petri plates, allowed to solidify and dried. Wells (4.6 mm in diameter) were then made in the seeded plates. 10 µl volumes of cell-free supernatant from overnight nisin derivative producing cultures or resuspended purified peptides were then added to the wells and the plates incubated at 30°C (L. lactis) or 37°C (Gram positive strains) or RT (Gram negative strains) for 3 hours. Polymyxin B (Sigma Aldrich) was used at a concentration of 20 µg/ml. The plates were then overlaid with 15 mls of autoclaved double strength GM17 (L. lactis) or LB (Gram negatives) agarose (1% w/v agarose) overlay medium precooled to 50°C. The plates were then incubated overnight at the relevant temperature.

B. cereus DPC 6088 = assay: Broth MIC, Gram positive; format: cell-based, Bacillus cereus; conditions: broth microtitre, BSA pre-treated plates, 10^5 cfu ml^−1, 2-fold dilutions from 10 µM, 16 h 37°C, purified peptide, mean of triplicate assays
Method: (§2) Minimum inhibitory concentration determinations for Gram positive organisms were carried out in triplicate in microtitre plates (Sarstedt). 96 well microtitre plates were pre-treated with bovine serum albumin (BSA) prior to addition of the peptides. Briefly, to each well of the microtitre plate 200 µL of phosphate buffered saline (PBS) containing 1% (w/v) bovine serum albumin (PBS/BSA) was added and incubated at 37°C for 30 min. The wells were washed with 200 µL PBS and allowed to dry. Target strains were grown overnight in the appropriate conditions and medium, subcultured into fresh broth and allowed to grow to an OD600 of ∼0.5, diluted to a final concentration of 10^5 cfu ml^−1 in a volume of 0.2 ml. Wild type nisin and nisin mutant peptides were adjusted to a 10 µM (S. mitis, B. cereus), 7.5 µM (L. monocytogenes), 5 µM (hVISA) 2.5 µM (MRSA, E. durans), or 500 nM (L. lactis strains) starting concentration and 2-fold serial dilutions of each peptide were added to the target strain.

B. cereus DPC 6089 = assay: Broth MIC, Gram positive; format: cell-based, Bacillus cereus; conditions: broth microtitre, BSA pre-treated plates, 10^5 cfu ml^−1, 2-fold dilutions from 10 µM, 16 h 37°C, purified peptide, mean of triplicate assays
Method: as §2

[2] = test system: Salmonella enterica serovar Typhimurium UK1; assay: Broth MIC, Gram negative; format: cell-based; conditions: cells washed in 10 mM SPB pH 7.4, 2×10^5 CFU/mL, 2 h RT with peptide, then double strength LB, RT overnight, mean of triplicate assays
Method: (§3) Minimum inhibitory concentration determinations for Gram negative strains were carried out in triplicate in 96 well microtitre plates. Briefly, bacteria (E. coli, C. sakazakii and Salmonella) grown to mid-logarithmic phase were harvested by centrifugation, washed with 10 mM SPB at pH 7.4, and diluted to 2×10^5 colony-forming units (CFU)/mL in SPB. Nisin and nisin derivative peptides were resuspended in sterile HPLC water and 50 µL aliquots were added to wells containing 50 µL of 2×10^5 CFU of bacteria. Plates were incubated at RT for two hours with agitation. Double strength Luria–Bertani (LB) broth (100 µL) was added and the plates were incubated at RT overnight, the MIC was taken as the lowest concentration at which growth was inhibited.

E. coli 0157-H7 [3] = assay: Broth MIC, Gram negative; format: cell-based; conditions: cells washed in 10 mM SPB pH 7.4, 2×10^5 CFU/mL, 2 h RT with peptide, then double strength LB, RT overnight, mean of triplicate assays
Method: as §3

C. sakazakii DPC 6440 [4] = assay: Broth MIC, Gram negative; format: cell-based, Cronobacter sakazakii; conditions: cells washed in 10 mM SPB pH 7.4, 2×10^5 CFU/mL, 2 h RT with peptide, then double strength LB, RT overnight, mean of triplicate assays
Method: as §3

S. mitis UCC5000 = assay: Broth MIC, Gram positive; format: cell-based, Streptococcus mitis; conditions: broth microtitre, BSA pre-treated plates, 10^5 cfu ml^−1, 2-fold dilutions from 10 µM, 16 h 37°C, purified peptide, mean of triplicate assays
Method: as §2

E. durans 5133 = assay: Broth MIC, Gram positive; format: cell-based, Enterococcus durans; conditions: broth microtitre, BSA pre-treated plates, 10^5 cfu ml^−1, 2-fold dilutions from 2.5 µM, 16 h 37°C, purified peptide, mean of triplicate assays
Method: as §2

L. lactis HP = assay: Broth MIC, Gram positive; format: cell-based; conditions: broth microtitre, BSA pre-treated plates, 10^5 cfu ml^−1, 2-fold dilutions from 500 nM, 16 h, purified peptide, mean of triplicate assays
Method: as §2

S. aureus RF122 = assay: Broth MIC, Gram positive; format: cell-based; conditions: broth microtitre, BSA pre-treated plates, 10^5 cfu ml^−1, 2-fold dilutions, 16 h 37°C, purified peptide, mean of triplicate assays
Method: as §2

[5] = test system: Salmonella enterica serovar Typhimurium UK1; assay: Agarose gel diffusion assay, purified peptide; format: cell-based; conditions: purified peptide 60 µM; for Zone of inhibition, agarose gel diffusion: Salmonella Typhimurium UK1, mean of triplicate assays; for Zone as % wt: Salmonella Typhimurium UK1, relative to nisin A
Method: as §1

E. coli 0157-H7 [6] = assay: Agarose gel diffusion assay, purified peptide; format: cell-based; conditions: purified peptide 60 µM; for Zone of inhibition, agarose gel diffusion: E. coli 0157-H7, mean of triplicate assays; for Zone as % wt: E. coli 0157-H7, relative to nisin A
Method: as §1

Lactococcus lactis HP = assay: Agarose-based assay of cell-free supernatants of S29X producing strains; conditions: for Zone Diameter (mm): agarose (1%) GM17 assay, 10 µl cell-free supernatant of overnight producing culture in 4.6 mm wells, L. lactis HP, 30°C; for % difference (zone relative to wild type): agarose assay of supernatants against L. lactis HP, wild type serine = 100
Method: as §1

L. monocytogenes 10403S = assay: Broth MIC, Gram positive; format: cell-based; conditions: broth microtitre, BSA pre-treated plates, 10^5 cfu ml^−1, 2-fold dilutions from 7.5 µM, 16 h 37°C, purified peptide, mean of triplicate assays
Method: as §2

L. lactis MG1363 = assay: Broth MIC, Gram positive; format: cell-based; conditions: broth microtitre, BSA pre-treated plates, 10^5 cfu ml^−1, 2-fold dilutions from 500 nM, 16 h, purified peptide, mean of triplicate assays
Method: as §2

[7] = test system: hVISA 32679 (heterogenous Vancomycin-intermediate S. aureus); assay: Broth MIC, Gram positive; format: cell-based; conditions: broth microtitre, BSA pre-treated plates, 10^5 cfu ml^−1, 2-fold dilutions from 5 µM, 16 h 37°C, purified peptide, mean of triplicate assays
Method: as §2

[8] = test system: ST 528 (Methicillin resistant S. aureus); assay: Broth MIC, Gram positive; format: cell-based; conditions: broth microtitre, BSA pre-treated plates, 10^5 cfu ml^−1, 2-fold dilutions from 2.5 µM, 16 h 37°C, purified peptide, mean of triplicate assays
Method: as §2

L. monocytogenes LO28 = assay: Broth MIC, Gram positive; format: cell-based; conditions: broth microtitre, BSA pre-treated plates, 10^5 cfu ml^−1, 2-fold dilutions from 7.5 µM, 16 h 37°C, purified peptide, mean of triplicate assays
Method: as §2

[9] = test system: ST 530 (Methicillin resistant S. aureus); assay: Broth MIC, Gram positive; format: cell-based; conditions: broth microtitre, BSA pre-treated plates, 10^5 cfu ml^−1, 2-fold dilutions from 2.5 µM, 16 h 37°C, purified peptide, mean of triplicate assays
Method: as §2

| Substance | Zone of inhibition, agarose gel diffusion (C. sakazakii DPC 6440 [1]) [mm] | Zone as % wt (C. sakazakii DPC 6440 [1]) [% wt] | MIC (B. cereus DPC 6088) | MIC (B. cereus DPC 6089) | MIC [2] | MIC (E. coli 0157-H7 [3]) | MIC (C. sakazakii DPC 6440 [4]) | MIC (S. mitis UCC5000) | MIC (E. durans 5133) | MIC (L. lactis HP) | MIC (S. aureus RF122) | Zone of inhibition, agarose gel diffusion [5] [mm] | Zone as % wt [5] [% wt] | Zone of inhibition, agarose gel diffusion (E. coli 0157-H7 [6]) [mm] | Zone as % wt (E. coli 0157-H7 [6]) [% wt] | Zone Diameter (mm) (Lactococcus lactis HP) | % difference (zone relative to wild type) (Lactococcus lactis HP) | MIC (L. monocytogenes 10403S) | MIC (L. lactis MG1363) | MIC [7] | also measured |
| --- | --- | --- | --- | --- | --- | --- | --- | --- | --- | --- | --- | --- | --- | --- | --- | --- | --- | --- | --- | --- | --- |
| M21K: M21K hinge derivative of nisin A, generated and purified for comparison (ITSISLCTPGCKTGALMGCNKKTATCHCSIHVSK; thioether (positions not given here); not fully specified (residues 2, 5, 33, bridges); UniProt P13068 24-57, looked up, variant M21K) | 10.51±0.10 | 108 | 16.76 mg/L and 5.0 µM | 16.76 mg/L and 5.0 µM | 50.28 mg/L and 15 µM | 25.14 mg/L and 7.5 µM | 6.28 mg/L and 1.875 µM | 8.38 mg/L and 2.5 µM | 0.52 mg/L and 0.156 µM | 0.2 mg/L and 0.062 µM | 1.04 mg/L and 0.312 µM | 10.75±0.12 | 109 | 10.80±0.01 | 110 |  |  |  |  |  |  |
| S29E: bioengineered nisin A derivative, serine 29 replaced by glutamic acid (ITSISLCTPGCKTGALMGCNMKTATCHCEIHVSK; not fully specified (residues 2, 5, 33, bridges); cysteine pairing not given here; UniProt P13068 24-57, looked up, variant S29E) | 7.98±0.29 | 81 | 4.19 mg/L and 1.25 µM | 4.19 mg/L and 1.25 µM | 50.28 mg/L and 15 µM | 25.14 mg/L and 7.5 µM | 12.57 mg/L and 3.75 µM | 4.19 mg/L | 0.52 mg/L and 0.156 µM | 0.05 mg/L and 0.015 µM | 2 mg/L and 0.625 µM | 10.77±0.07 | 109 | 10.54±0.19 | 107 | 18.6±0.3 | 122 (0.0004) % | 12.57 mg/L and 3.75 µM | 0.8 mg/L and 0.250 µM | 4.19 mg/L and 1.25 µM | MIC [8]: 0.52 mg/L; MIC (L. monocytogenes LO28): 6.28 mg/L and 1.875 µM; MIC [9]: 0.52 mg/L |
| S29D: bioengineered nisin A derivative, serine 29 replaced by aspartic acid (ITSISLCTPGCKTGALMGCNMKTATCHCDIHVSK; thioether (positions not given here); not fully specified (residues 2, 5, 33, bridges); UniProt P13068 24-57, looked up, variant S29D) | 10.10±0.19 | 103 | 16.76 mg/L and 5.0 µM | 8.38 mg/L and 2.5 µM | > 100 mg/L and > 30 µM | > 100 mg/L and > 30 µM | 6.28 mg/L and 1.875 µM | 16.76 mg/L and 5.0 µM | 0.52 mg/L and 0.156 µM | 0.05 mg/L and 0.015 µM | 4.19 mg/L and 1.25 µM | 8.22±0.16 | 83 | 8.27±0.08 | 84 | 20.3±0.8 | 133 (0.006) % | 12.57 mg/L and 3.75 µM | 0.4 mg/L and 0.125 µM | 4.19 mg/L and 1.25 µM | MIC [8]: 0.26 mg/L and 0.078 µM; MIC (L. monocytogenes LO28): 12.57 mg/L and 3.75 µM; MIC [9]: 0.52 mg/L and 0.156 µM |

— PMC3466204 (PLoS ONE, 2012)
